Several values for one entry are separate records, joined by “and”; a condition that tells them apart may be missing. Equal entries are not always repeated. Where two headings read alike, the source gives them in different places.
Columns and labels:
[1] = target: FLuc-C-NLuc (firefly luciferase) (Photinus pyralis, UniProt P08659, form not given/L550V); assay: Firefly luciferase (FLuc) enzymatic luminescence assay, FLuc-C-NLuc; format: biochemical
Protocol: The enzyme activity of FLuc-N-HiBiT, FLuc-C-HiBiT, and FLuc-C-NLuc was measured similar to P. pyralis firefly luciferase (FLuc) as previously described. […] Compounds and controls were added to each plate as described in Supplementary Data 8 with a Hornet pintool system (Wako Automation). Compounds were incubated with respective enzymes for 30–60 min at room temperature protected from light and covered by solid metal lid to prevent evaporation. […] Luciferin was incubated with FLuc enzyme for 5 min before FLuc activity was then measured on a ViewLux CCD imager (PerkinElmer), with exposure times up to ten seconds with medium to high gain settings. Data were normalized to average no enzyme control as 100% enzyme inhibition and average DMSO neutral control. See Supplementary Table 4 for additional details.
Supplementary Table 4. Protocol for Firefly luciferase (FLuc) and NanoLuc (NLuc) enzymatic
Supplementary Table 4: Protocol for Firefly luciferase (FLuc) and NanoLuc (NLuc) enzym atic lum inescence assay
Firefly luciferase (FLuc) enzym atic lum inescence assay
Sequence Param eter Value Description
No enzym e control (colum n 1) and enzym e solution (1- 10 nM FLuc enzym e) in FLuc assay
1 Reagent 4 µLbuffer; white/solid bottom , m edium bind, high base plates (Greiner), dispensed with BioRaptr
com pounds transferred to respective colum ns with Pintool
2b Test Com pounds 23 nLconcentration range) in colum ns 5- 48; com pounds transferred to respective wells with
3 Incubation 30 m in Incubate enzym e + com pounds at am bient tem p for 30 m in, protected from light
4 Reagent 3 µLAdd 3 µL of D-luciferin substrate solution to each well (final concentration 10 µM); dispensed
5 Detector ViewLux Read plate lum inescence (Exposure = 1- 10 sec; Gain = Medium -high; Speed = Slow;
Dispensing solution was diluted in 1X PBS, pH 7.4. […]

NLuc = target: T1, NLuc (Oplophorus gracilirostris, UniProt Q9GV45, A31E/A60N/A81I/F95D/I117V/K70R/L54V/L99Q/M102K/N193R/P142E/Q151K/Q38R/Q45L/V71I/Y165I); format: biochemical; conditions: 32.8 µM ligand; for SDR assay statistics Ave RLU / SDR assay statistics S:B / SDR assay statistics S:N / SDR assay statistics Z’: Standard functional and SDR assays are the same
T1 construct: His tag (inferred from IMAC purification); made in house; host or cells: E. coli
Procedure, shortened: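 Test compounds added to 1 nM NLuc in PBS with 0.05% IGEPAL, ± ATP. Nano-Glo reagent added and incubated 10 min before luminescence read.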

[2] = target: FLuc-C-HiBiT (firefly luciferase) (Photinus pyralis, UniProt P08659, form not given/L550V); assay: SDR assay, FLuc-C-HiBiT; conditions: for SDR assay statistics Ave RLU / SDR assay statistics S:B / SDR assay statistics S:N / SDR assay statistics Z’: 32.8 µM ligand; for 10 nM FLuc-C-HiBiT + 10 mM ATP, Mean / 10 nM FLuc-C-HiBiT No ATP, Mean: Log [PTC124]
[3] = FLuc-C-NLuc (1 nM) + 10 mM ATP, 32.8 µM ligand
[4] = FLuc-C-HiBiT (10 nM) + 10 mM ATP

Chain of FLuc-C-NLuc (firefly luciferase) (P08659 2-550 L550V, form open): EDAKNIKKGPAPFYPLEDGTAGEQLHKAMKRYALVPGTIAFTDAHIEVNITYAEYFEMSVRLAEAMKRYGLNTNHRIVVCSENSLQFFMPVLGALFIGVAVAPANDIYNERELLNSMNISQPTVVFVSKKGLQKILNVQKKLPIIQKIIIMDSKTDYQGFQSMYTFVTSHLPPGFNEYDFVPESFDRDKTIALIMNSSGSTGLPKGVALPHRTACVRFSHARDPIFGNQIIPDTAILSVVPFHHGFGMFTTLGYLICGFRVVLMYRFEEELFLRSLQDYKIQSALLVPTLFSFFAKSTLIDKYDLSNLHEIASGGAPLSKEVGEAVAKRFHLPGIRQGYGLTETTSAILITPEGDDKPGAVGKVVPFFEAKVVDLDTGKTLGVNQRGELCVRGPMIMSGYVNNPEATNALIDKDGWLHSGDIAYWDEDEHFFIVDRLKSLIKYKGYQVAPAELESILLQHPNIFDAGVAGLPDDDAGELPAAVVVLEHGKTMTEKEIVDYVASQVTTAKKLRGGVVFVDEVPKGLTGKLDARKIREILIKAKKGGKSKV
Chain of FLuc-C-HiBiT (firefly luciferase) (P08659 2-550 L550V, form open): as above
T1 sequence (Q9GV45 other isoform, or with tags, fused parts or gaps with the stated changes): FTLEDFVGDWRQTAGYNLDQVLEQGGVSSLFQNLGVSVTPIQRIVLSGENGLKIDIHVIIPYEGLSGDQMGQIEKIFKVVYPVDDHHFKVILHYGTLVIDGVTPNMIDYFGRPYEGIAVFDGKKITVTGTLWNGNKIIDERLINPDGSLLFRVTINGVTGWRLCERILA

SMILES: O=C(O)c1cccc(-c2noc(-c3ccccc3F)n2)c1 [PTC124, reference compound]
- Functional Enzymatic Assay ([1]; 1 nM FLuc-C-NLuc, Log [PTC124], M -6.87, replicates): 5.5 RLU and 5.8 RLU and 4.9 RLU and 5.4 RLU
- pIC50, FLuc-C-NLuc (1 nM) ([1]; 10 μM ATP): 9.85 ± 0.03
- Standard assay statistics Ave RLU [1, 3]: 18.2 RLU
- Standard assay statistics S:B [1, 3]: 48.3
- Standard assay statistics S:N [1, 3]: 14.7
- Standard assay statistics Z’ [1, 3]: 0.775
- 1 nM FLuc-C-NLuc Enz, Mean ([1]; Log [PTC124], M -4.48): 0.85 RLU
- 1 nM FLuc-C-NLuc Enz, Mean ([1]; Log [PTC124], M -4.96): 0.8 RLU
- 1 nM FLuc-C-NLuc Enz, Mean ([1]; Log [PTC124], M -5.44): 1.3 RLU
- 1 nM FLuc-C-NLuc Enz, Mean ([1]; Log [PTC124], M -5.91): 1.6 RLU
- 1 nM FLuc-C-NLuc Enz, Mean ([1]; Log [PTC124], M -6.39): 2.8 RLU
- 1 nM FLuc-C-NLuc Enz, Mean ([1]; Log [PTC124], M -6.87): 5.9 RLU
- 1 nM FLuc-C-NLuc Enz, Mean ([1]; Log [PTC124], M -7.35): 11.8 RLU
- 1 nM FLuc-C-NLuc Enz, Mean ([1]; Log [PTC124], M -7.82): 27.4 RLU
- 1 nM FLuc-C-NLuc Enz, Mean ([1]; Log [PTC124], M -8.30): 69.9 RLU
- 1 nM FLuc-C-NLuc Enz, Mean ([1]; Log [PTC124], M -8.78): 146.5 RLU
- 1 nM FLuc-C-NLuc Enz, Mean ([1]; Log [PTC124], M -9.25): 188.2 RLU
- 1 nM FLuc-C-NLuc Enz, Mean ([1]; Log [PTC124], M -9.73): 384.3 RLU
- 1 nM FLuc-C-NLuc Enz, Mean ([1]; Log [PTC124], M -10.21): 641.6 RLU
- 1 nM FLuc-C-NLuc Enz, Mean ([1]; Log [PTC124], M -10.69): 817.0 RLU
- 1 nM FLuc-C-NLuc Enz, Mean ([1]; Log [PTC124], M -11.16): 872.5 RLU
- 1 nM FLuc-C-NLuc Enz, Mean ([1]; Log [PTC124], M -11.64): 882.4 RLU
- Standard assay statistics Ave RLU (NLuc; NLuc (1 nM) + 10 mM ATP): 17397.2 RLU
- Standard assay statistics S:B (NLuc; NLuc (1 nM) + 10 mM ATP): 1.0
- Standard assay statistics S:N (NLuc; NLuc (1 nM) + 10 mM ATP): 0.0
- Standard assay statistics Z’ (NLuc; NLuc (1 nM) + 10 mM ATP): -163.485
- SDR assay statistics Ave RLU (NLuc; NLuc (1 nM) + 10 mM ATP): 17397.2 RLU
- SDR assay statistics S:B (NLuc; NLuc (1 nM) + 10 mM ATP): 1.0
- SDR assay statistics S:N (NLuc; NLuc (1 nM) + 10 mM ATP): 0.0
- SDR assay statistics Z’ (NLuc; NLuc (1 nM) + 10 mM ATP): -163.485
- Standard assay statistics Ave RLU (NLuc; NLuc (1 nM) No ATP): 20065.5 RLU
- Standard assay statistics S:B (NLuc; NLuc (1 nM) No ATP): 1.0
- Standard assay statistics S:N (NLuc; NLuc (1 nM) No ATP): 0.0
- Standard assay statistics Z’ (NLuc; NLuc (1 nM) No ATP): -167.215
- SDR assay statistics Ave RLU (NLuc; NLuc (1 nM) No ATP): 20065.5 RLU
- SDR assay statistics S:B (NLuc; NLuc (1 nM) No ATP): 1.0
- SDR assay statistics S:N (NLuc; NLuc (1 nM) No ATP): 0.0
- SDR assay statistics Z’ (NLuc; NLuc (1 nM) No ATP): -167.215
- pSDR50, FLuc-C-HiBiT (10 nM) ([2]; 0 μM ATP): 5.73 ± 0.13
- pSDR50, FLuc-C-HiBiT (10 nM) ([2]; 10 μM ATP): 8.30 ± 0.07
- SDR assay statistics Ave RLU [2, 4]: 11178.8 RLU
- SDR assay statistics S:B [2, 4]: 6.5
- SDR assay statistics S:N [2, 4]: 12.2
- SDR assay statistics Z’ [2, 4]: 0.693
- SDR assay statistics Ave RLU ([2]; FLuc-C-HiBiT (10 nM) No ATP): 6229.4 RLU
- SDR assay statistics S:B ([2]; FLuc-C-HiBiT (10 nM) No ATP): 5.1
- SDR assay statistics S:N ([2]; FLuc-C-HiBiT (10 nM) No ATP): 7.5
- SDR assay statistics Z’ ([2]; FLuc-C-HiBiT (10 nM) No ATP): 0.503
- 10 nM FLuc-C-HiBiT + 10 mM ATP, Mean ([2]; M (SDR) -4.48): 21802.2 RLU
- 10 nM FLuc-C-HiBiT No ATP, Mean ([2]; M (SDR) -4.48): 17458.7 RLU
- 10 nM FLuc-C-HiBiT + 10 mM ATP, Mean ([2]; M (SDR) -4.96): 22284.7 RLU
- 10 nM FLuc-C-HiBiT No ATP, Mean ([2]; M (SDR) -4.96): 16769.9 RLU
- 10 nM FLuc-C-HiBiT + 10 mM ATP, Mean ([2]; M (SDR) -5.44): 22342.5 RLU
- 10 nM FLuc-C-HiBiT No ATP, Mean ([2]; M (SDR) -5.44): 16051.7 RLU
- 10 nM FLuc-C-HiBiT + 10 mM ATP, Mean ([2]; M (SDR) -5.91): 22563.9 RLU
- 10 nM FLuc-C-HiBiT No ATP, Mean ([2]; M (SDR) -5.91): 15076.6 RLU
- 10 nM FLuc-C-HiBiT + 10 mM ATP, Mean ([2]; M (SDR) -6.39): 22424.3 RLU
- 10 nM FLuc-C-HiBiT No ATP, Mean ([2]; M (SDR) -6.39): 13877.2 RLU
- 10 nM FLuc-C-HiBiT + 10 mM ATP, Mean ([2]; M (SDR) -6.87): 22543.4 RLU
- 10 nM FLuc-C-HiBiT No ATP, Mean ([2]; M (SDR) -6.87): 13237.3 RLU
- 10 nM FLuc-C-HiBiT + 10 mM ATP, Mean ([2]; M (SDR) -7.35): 21860.7 RLU
- 10 nM FLuc-C-HiBiT No ATP, Mean ([2]; M (SDR) -7.35): 13241.3 RLU
- 10 nM FLuc-C-HiBiT + 10 mM ATP, Mean ([2]; M (SDR) -7.82): 20621.1 RLU
- 10 nM FLuc-C-HiBiT No ATP, Mean ([2]; M (SDR) -7.82): 13270.4 RLU
- 10 nM FLuc-C-HiBiT + 10 mM ATP, Mean ([2]; M (SDR) -8.30): 18655.3 RLU
- 10 nM FLuc-C-HiBiT No ATP, Mean ([2]; M (SDR) -8.30): 13170.2 RLU
- 10 nM FLuc-C-HiBiT + 10 mM ATP, Mean ([2]; M (SDR) -8.78): 16941.8 RLU
- 10 nM FLuc-C-HiBiT No ATP, Mean ([2]; M (SDR) -8.78): 13237.7 RLU
- 10 nM FLuc-C-HiBiT + 10 mM ATP, Mean ([2]; M (SDR) -9.25): 15920.6 RLU
- 10 nM FLuc-C-HiBiT No ATP, Mean ([2]; M (SDR) -9.25): 13300.5 RLU
- 10 nM FLuc-C-HiBiT + 10 mM ATP, Mean ([2]; M (SDR) -9.73): 15410.2 RLU
- 10 nM FLuc-C-HiBiT No ATP, Mean ([2]; M (SDR) -9.73): 13254.2 RLU
- 10 nM FLuc-C-HiBiT + 10 mM ATP, Mean ([2]; M (SDR) -10.21): 15302.7 RLU
- 10 nM FLuc-C-HiBiT No ATP, Mean ([2]; M (SDR) -10.21): 12964.2 RLU
- 10 nM FLuc-C-HiBiT + 10 mM ATP, Mean ([2]; M (SDR) -10.69): 15229.5 RLU
- 10 nM FLuc-C-HiBiT No ATP, Mean ([2]; M (SDR) -10.69): 13111.1 RLU
- 10 nM FLuc-C-HiBiT + 10 mM ATP, Mean ([2]; M (SDR) -11.16): 15146.3 RLU
- 10 nM FLuc-C-HiBiT No ATP, Mean ([2]; M (SDR) -11.16): 13296.1 RLU
- 10 nM FLuc-C-HiBiT + 10 mM ATP, Mean ([2]; M (SDR) -11.64): 14993.9 RLU
- 10 nM FLuc-C-HiBiT No ATP, Mean ([2]; M (SDR) -11.64): 13163.6 RLU

— publication PMC12064818, “A general assay platform to study protein pharmacology using ligand-dependent structural dynamics” (Nature Communications, 2025)
